Source: US20110009435A1, “HETERO BICYCLIC CARBOXAMIDE DERIVATIVES AND THEIR PHARMACEUTICAL USE AND COMPOSITIONS” (Pfizer, Inc., priority 2007, published 2011)
Where a name gives a salt, the structure may show the parent alone.

Legend:
[1] = target: T1, catalytic domain of human recombinant MMP-3 (Homo sapiens, UniProt P08254); assay: In vitro MMP inhibition assay, MMP-3 catalytic domain (fluorogenic peptide substrate cleavage, Ki); format: biochemical; conditions: human MMP-3, catalytic domain (CD); read-out: hMMP Ki 03/CD
T1 construct: made in house
Experimental: (§1) Matrix Metalloproteinase inhibitor compounds were analyzed in in vitro MMP Inhibition assays to determine their ability to inhibit the MMP cleavage of peptide substrates. Inhibition constants (Ki) were calculated from the assayed compound-MMP interactions.
(§2) Human recombinant MMP-1, MMP-2, MMP-3, MMP-7, MMP-9, MMP-12, MMP-13, MMP-14 and MMP-15 were used in these assays. The enzymes are prepared following known laboratory procedures. Protocols for the preparation and use of these enzymes are available in the scientific literature. See, e.g., Enzyme Nomenclature (Academic Press, San Diego, Calif., 1992) and the citations therein. See also Frije et al., J. Biol. Chem., 26(24), 16766-73 (1994).
The catalytic domain MMP-3 cDNA may be used to express the catalytic domain enzyme in E. coli inclusion bodies. Then the enzyme is solubilized in urea, purified on a preparative […] reverse phase HPLC column, and refolded in the presence of zinc acetate and purified for use.
The fluorogenic, methoxycoumarin-containing polypeptide substrate Mca-Arg-Pro-Lys-Pro-Val-Glu-Nva-Trp-Arg-Lys(Dnp)-NH2 (Bachem catalog number M-2110) was used as the MMP substrate in the MMP inhibition assays for catalytic domain of human recombinant MMP-3 (which refers to the catalytic domain of stromelysin). Here, “MCA” is 7-methoxycoumarin-4-yl acetyl and “Dpa” is 3-(2,4-dinitrophenyl)-L-2,3-di-aminopropionyl group. In the absence of MMP inhibitory activity, the substrate is cleaved at the Gly-Leu peptide bond. The cleavage separates the highly fluorogenic peptide from the 2,4-dinitrophenyl quencher, resulting in an increase of fluorescent intensity.
For the human MMP-3 assay, dilutions of the inhibitors (or salts thereof) were prepared in 100% DMSO. The stock solutions were diluted in Buffer B (50 mM N-morpholinoethane sulfonate (“MES”), 100 mM NaCl, 10 mM CaCl2, 0.005% polyoxyethylene 23 lauryl ether, pH 6.0)) to obtain solutions with different compound concentrations, i.e., assay solutions with different concentrations of the assayed MMP inhibitory compound in 1% DMSO. The experiment controls contained the same amount of Buffer B/DMSO as the assayed sample, but contained no inhibitor.
(§3) To determine Ki, the inhibitor samples are incubated at room temperature for 1 hr in the presence of enzyme and then 4 μM of appropriate MMP substrate was added, and samples were analyzed on a Tecan SpectraFlour Plus plate reader. The excitation wavelength is 330 nm, and the emission (fluorescence) wavelength is 420 nm. In the absence of MMP inhibitory activity, the substrate is cleaved at the Gly-Leu bond resulting in an increase of relative fluorescence. Inhibition is observed as a reduced rate of increase in relative fluorescence.
The inhibitors are analyzed using a single low enzyme concentration with a single substrate concentration fixed at or below the Km. This protocol is a modification of method by Knight et al., FEBS Lett., 296(3), 263-266 (1992). Apparent inhibitory constants are determined by non-linear regression of reaction velocity as a function of inhibitor and enzyme concentration using Morrison's equation, as described by Kuzmic, Anal. Biochem. 286, 45-50 (2000). Modifications were made in the non-linear regression method to allow a common control reaction rate and effective enzyme concentration to be shared between all dose-response relationships on a given assay plate. Since the substrate concentration was chosen to be at or below the Km, the apparent Ki's from this analysis were reported as Ki's without correction for the influence of substrate.

[2] = target: T2, Human recombinant MMP-13 (Homo sapiens, UniProt P45452); assay: In vitro MMP inhibition assay, MMP-13 (fluorogenic peptide substrate cleavage, Ki); format: biochemical; conditions: human MMP-13, full length (FL); read-out: hMMP Ki 13/FL
T2 construct: made in house; host or cells: baculovirus expression (insect cells)
Experimental: as §1, §2
The MMP-13 may be obtained as a proenzyme from a full-length cDNA clone using baculovirus expression, as described by V. A. Luckow, “Insect Cell Expression Technology,” Protein Engineering: Principles and Practice, pp. 183-218 (edited by J. L. Cleland et al., Wiley-Liss, Inc., 1996). The expressed proenzyme was first purified over a heparin agarose column, and then over a chelating zinc chloride column. Further details on baculovirus expression systems may be found in, for example, Luckow et al., J. Virol., 67, 4566-79 (1993). See also O'Reilly et al, Baculovirus Expression Vectors: A Laboratory Manual (W. H. Freeman and Co., New York, N.Y., 1992). See also King et al., The Baculovirus Expression System: A Laboratory Guide (Chapman & Hall, London, England, 1992).
All full length MMPs were activated using 4-aminophenylmercuric acetate (“APMA”, Sigma Chemical, St. Louis, Mo.) or trypsin. MMP-9 also was activated using human recombinant MMP-3 following standard cloning and purification techniques.
The fluorogenic, methoxycoumarin-containing polypeptide substrate MCA-ArgProLeuGlyLeuDpaAlaArgGluArgNH2 was used as the MMP substrate in the MMP inhibition assays for human recombinant MMP-1, MMP-2, MMP-7, MMP-9, MMP-12, MMP-13, MMP-14 and MMP-15. Here, “MCA” is 7-methoxycoumarin-4-yl acetyl and “Dpa” is 3-(2,4-dinitrophenyl)-L-2,3-di-aminopropionyl group. In the absence of MMP inhibitory activity, the substrate is cleaved at the Gly-Leu peptide bond. The cleavage separates the highly fluorogenic peptide from the 2,4-dinitrophenyl quencher, resulting in an increase of fluorescent intensity.
For the human MMP-1, MMP-2, MMP-7, MMP-9, MMP-12, MMP-13, MMP-14 and MMP-15 assays, dilutions of the inhibitors (or salts thereof) were prepared in 100% dimethyl sulfoxide (DMSO). The stock solutions were diluted in Buffer A (100 mM Tris-HCl, 100 mM NaCl, 10 mM CaCl2, 0.005% polyoxyethylene 23 lauryl ether, pH 7.5) to obtain solutions with different compound concentrations, i.e., assay solutions with different concentrations of the assayed MMP inhibitory compound in 1% DMSO. The experiment controls contained the same amount of Buffer A/DMSO as the assayed sample, but contained no inhibitor.
as §3
The inhibitors are analyzed using a single low enzyme concentration with a single substrate concentration fixed at or below the Km. This protocol is a modification of method by Knight et al., FEBS Lett., 296(3), 263-266 (1992). Apparent inhibitory constants are determined by non-linear regression of reaction velocity as a function of inhibitor and enzyme concentration using Morrison's equation, as described by Kuzmic, Anal. Biochem. 286, 45-50 (2000). […]

T1 sequence (P08254 100-272 limits assumed): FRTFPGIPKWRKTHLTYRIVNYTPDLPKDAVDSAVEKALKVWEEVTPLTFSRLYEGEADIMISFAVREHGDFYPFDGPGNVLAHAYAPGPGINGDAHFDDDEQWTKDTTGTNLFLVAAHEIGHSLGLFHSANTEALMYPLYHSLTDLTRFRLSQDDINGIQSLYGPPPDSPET

Row | Ki [1] | Ki [2] | Compound
1 | 668 nM | 1.62 nM | COc1cc(CNC(=O)c2nc3scc(COC[C@@H]4CO[C@@H](C(=O)O)CO4)c3c(=O)[nH]2)ccc1F (relative stereo) [Example 12, Trans-5-(((2-((4-Fluoro-3-methoxybenzyl)carbamoyl)-4-oxo-3,4-dihydrothieno[2,3-d]pyrimidin-5-yl)methoxy)methyl)-1,4-dioxane-2-carboxylic acid]
2 | 960 nM | 4.04 nM | COc1cc(CNC(=O)c2nc3scc(COC[C@@H]4CO[C@@H](C(N)=O)CO4)c3c(=O)[nH]2)ccc1F (relative stereo) [Example 15, N-(4-Fluoro-3-methoxybenzyl)-5-(((trans-5-carbamoyl-1,4-dioxan-2-yl)methoxy)methyl)-4-oxo-3,4-dihydrothieno[2,3-d]pyrimidine-2-carboxamide]
3 |  | 19.9 nM | COc1cccc(CNC(=O)c2nc3ccc(F)c(OC[C@@H]4CO[C@@H](CN)CO4)c3c(=O)[nH]2)c1 (relative stereo) [Example 36, 5-{[(trans 2,5)-5-(aminomethyl)-1,4-dioxan-2-yl]methoxy}-6-fluoro-N-(3-methoxybenzyl)-4-oxo-3,4-dihydroquinazoline-2-carboxamide]
4 | 258 nM | 0.141 nM | COc1cc(CNC(=O)c2nc3scc(COC[C@H]4CC[C@H](C(N)=O)CC4)c3c(=O)[nH]2)ccc1F [Example 13, N-(4-Fluoro-3-methoxybenzyl)-5-(((trans-4-carbamoylcyclohexyl)methoxy)methyl)-4-oxo-3,4-dihydrothieno[2,3-d]pyrimidine-2-carboxamide]
5 | 350 nM | 0.479 nM | COc1cc(CNC(=O)c2nc3scc(COC[C@H]4CC[C@H](C#N)CC4)c3c(=O)[nH]2)ccc1F [Example 14, N-(4-Fluoro-3-methoxybenzyl)-5-(((trans-4-cyanocyclohexyl)methoxy)methyl)-4-oxo-3,4-dihydrothieno[2,3-d]pyrimidine-2-carboxamide]
6 | 533 nM | 0.41 nM | COc1cccc(CNC(=O)c2nc3scc(COC[C@H]4CC[C@H](NS(C)(=O)=O)CC4)c3c(=O)[nH]2)c1 [Example 16, N-(3-Methoxybenzyl)-5-[({trans-4-[(methylsulfonyl)amino]cyclohexyl}methoxy)methyl]-4-oxo-3,4-dihydrothieno[2,3-d]pyrimidine-2-carboxamide]
7 |  | 9.28 nM | COc1cccc(CNC(=O)c2nc3scc(COCCC4CCNCC4)c3c(=O)[nH]2)c1 [Example 26, N-(3-methoxybenzyl)-4-oxo-5-[(2-piperidin-4-ylethoxy)methyl]-3,4-dihydrothieno[2,3-d]pyrimidine-2-carboxamide hydrochloride]

More lines, now with the values behind:

Row | Compound | Ki [1] | Ki [2]
8 | COc1cccc(CNC(=O)c2nc3ccc(F)c(OC[C@H]4CO[C@H](CO)CO4)c3c(=O)[nH]2)c1 (relative stereo) [Example 3, 6-Fluoro-5-{[(trans-2,5)-5-(hydroxymethyl)-1,4-dioxan-2-yl]methoxy}-N-(3-methoxybenzyl)-4-oxo-3,4-dihydroquinazoline-2-carboxamide] | 8580 nM | 16.4 nM
9 | COc1cccc(CNC(=O)c2nc3scc(COC[C@@H]4CO[C@@H](C(=O)O)CO4)c3c(=O)[nH]2)c1 (relative stereo) [Example 8, Trans-5-(((2-((3-Methoxybenzyl)carbamoyl)-4-oxo-3,4-dihydrothieno[2,3-d]pyrimidin-5-yl)methoxy)methyl)-1,4-dioxane-2-carboxylic acid] | 1310 nM | 4.16 nM
10 | COc1cc(CNC(=O)c2nc3scc(COC[C@@H]4CO[C@@H](CO)CO4)c3c(=O)[nH]2)ccc1F (relative stereo) [Example 11, N-(4-Fluoro-3-methoxybenzyl)-5-(((trans-5-(hydroxymethyl)-1,4-dioxan-2-yl)methoxy)methyl)-4-oxo-3,4-dihydrothieno[2,3-d]pyrimidine-2-carboxamide] | 663 nM | 11 nM
11 | COc1cccc(CNC(=O)c2nc3scc(COC[C@H]4CC[C@H](N)CC4)c3c(=O)[nH]2)c1 [Example 1, 5-({[trans-4-Aminocyclohexyl]methoxy}methyl)-N-(3-methoxybenzyl)-4-oxo-3,4-dihydrothieno[2,3-d]pyrimidine-2-carboxamide] |  | 13 nM
12 | COc1cccc(CNC(=O)c2nc3scc(COC[C@H]4CC[C@H](CO)CC4)c3c(=O)[nH]2)c1 [Example 4, N-(3-methoxybenzyl)-5-(((trans-4-(hydroxymethyl)cyclohexyl)methoxy)methyl)-4-oxo-3,4-dihydrothieno[2,3-d]pyrimidine-2-carboxamide] | 337 nM | 0.471 nM
13 | COc1cccc(CNC(=O)c2nc3scc(COC[C@H]4CC[C@H](C(=O)O)CC4)c3c(=O)[nH]2)c1 [Example 5, Trans-4-(((2-((3-Methoxybenzyl)carbamoyl)-4-oxo-3,4-dihydrothieno[2,3-d]pyrimidin-5-yl)methoxy)methyl)cyclohexanecarboxylic acid] | 389 nM | 0.221 nM
14 | COc1cccc(CNC(=O)c2nc3scc(COC[C@H]4CC[C@H](C#N)CC4)c3c(=O)[nH]2)c1 [Example 6, N-(3-Methoxybenzyl)-5-(((trans-4-cyanocyclohexyl)methoxy)methyl)-4-oxo-3,4-dihydrothieno[2,3-d]pyrimidine-2-carboxamide] | 468 nM | 0.747 nM
15 | COc1cc(CNC(=O)c2nc3scc(COC[C@H]4CC[C@H](C(=O)O)CC4)c3c(=O)[nH]2)ccc1F [Example 10, Trans-4-(((2-((4-Fluoro-3-methoxybenzyl)carbamoyl)-4-oxo-3,4-dihydrothieno[2,3-d]pyrimidin-5-yl)methoxy)methyl)cyclohexanecarboxylic acid] | 163 nM | 0.143 nM
